Reference: patent US3932400A, “Thiazole derivatives” (Sumitomo Chemical Company, Limited, priority 1972, dated 1976)

What was measured:
male mice = type: in vivo; settings: intravenous; 10 male mice; up and down method
β-adrenergic receptor = β-adrenergic receptor blocking activity in open chest dog; type: in vivo; settings: relative to propranolol = 1, pentbarbital-anesthetized open chest dog; for β-adrenergic receptor blocking activity in open chest dog (propranolol = 1), DDE: depressive effect on depressor effect (DDE) induced by intravenous isoproternol; for β-adrenergic receptor blocking activity in open chest dog (propranolol = 1), DPC: depressive effect on positive chronotropic (DPC) effect induced by intravenous isoproternol; for β-adrenergic receptor blocking activity in open chest dog (propranolol = 1), DPI: depressive effect on positive inotropic (DPI) effect induced by intravenous isoproternol
Method: Note: A determination of β-adrenergic receptor blocking activity of test compounds in open chest dog was as follows. Thus dogs were anesthetized with pentbarbital sodium (administrated 30 - 40 mg./kg. intraveneously). Heart rate, myocardial contractile force and blood pressure were recorded with NIHON KODEN RM-150 polygraph. A depressive effect of test compounds on positive chronotropic (DPC), positive inotropic (DPI) and depressor effect (DDE) induced by isoproternol, which was injected intraveneously at a quarter interval, was determined.

| Compound | Acute toxicity LD50 (male mice) | β-adrenergic receptor blocking activity in open chest dog (propranolol = 1), DDE (β-adrenergic receptor) | β-adrenergic receptor blocking activity in open chest dog (propranolol = 1), DPC (β-adrenergic receptor) | β-adrenergic receptor blocking activity in open chest dog (propranolol = 1), DPI (β-adrenergic receptor) |
| --- | --- | --- | --- | --- |
| CC(C)(C)NCC(O)CSc1nc(-c2ccc(C(N)=O)s2)cs1 (stereo not shown) [Example 37, 2-(3'-t-butylamino-2'-hydroxypropylthio)-4-(5'-carbamoyl-2'-thienyl)thiazole] | 86 mg/kg | 8 | 15 | 15 |
| CC(=O)Nc1ccc(OCC(O)CNC(C)C)cc1 (stereo not shown) [Practolol, reference compound] |  | 0.08 | 0.5 | 0.7 |
